IC50 data for 18 compounds are collected here from US20240158394A1, “NEK7 INHIBITORS” (Halia Therapeutics, Inc., priority 2022, published 2024).

full-length recombinant human NEK7, sequence (Q8TDX7 whole entry): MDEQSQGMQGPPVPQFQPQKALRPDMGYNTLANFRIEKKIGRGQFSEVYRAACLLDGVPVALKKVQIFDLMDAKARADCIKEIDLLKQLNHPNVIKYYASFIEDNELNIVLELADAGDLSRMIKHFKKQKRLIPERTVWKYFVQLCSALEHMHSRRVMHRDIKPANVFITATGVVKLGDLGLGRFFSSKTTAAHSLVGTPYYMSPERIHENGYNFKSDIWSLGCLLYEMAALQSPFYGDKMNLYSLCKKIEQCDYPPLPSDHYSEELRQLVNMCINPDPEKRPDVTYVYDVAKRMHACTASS

For this assay, the target named is full-length recombinant human NEK7 (Homo sapiens (Human), UniProt Q8TDX7). Briefly: NEK7 Enzymatic Assay. The assay is classed as biochemical. Conditions: casein substrate, [33P]-ATP, 2 hours at room temperature. The method, then:
Casein substrate (from bovine milk, hydrolyzed and partially dephosphorylated mixture of α, β and κ caseins, obtained from Sigma Aldrich, catalogue #C4765, diluted in distilled water to a final concentration of 1 mg/mL) and full-length recombinant human NEK7 (expressed by baculovirus in Sf9 insect cells using a N-terminal GST tag, obtained from SignalChem, catalogue #N09-10G, 0.1 μg/μL) were mixed in assay buffer (20 mM HEPES pH 7.5, 10 mM MgCl2, 1 mM EGTA, 0.02% Brij35, 0.02 mg/mL BSA, 0.1 mM Na3VO4, 2 mM DTT, 1% DMSO). Compounds of interest (serial 3-fold dilution in DMSO from 10 μM to 0.5 nM) or vehicle (1% DMSO) were dispensed into the kinase reaction mixture by Acoustic technology (Echo550; nanoliter range). After incubation at room temperature for 20 minutes, the kinase reaction was initiated by addition of [^33P]-ATP (specific activity 10 μCi/μL) and the mixture was incubated at room temperature for 2 hours. The reaction was then stopped by spotting the reaction mixture on strips of phosphocellulose P81 paper. Following washing, the radioactivity of the P81 paper was measured and kinase activity data were expressed as the percent remaining kinase activity in test samples compared to vehicle reactions. IC50 values and curve fits were obtained using Prism (GraphPad Software).
As usually defined, the IC50 is the concentration that inhibits the measured activity by half. Consider `Nc1ncnc2c1c(-c1ccc(NC(=O)Nc3cc(C4(C(F)(F)F)CC4)on3)c3nccn13)cn2C1CC(O)C1` (stereo not drawn) [Example I-87, 1-(5-(4-amino-7-(3-hydroxy-cyclobutyl)-7H-pyrrolo[2,3-d]pyrimidin-5-yl)imidazo[1,2-a]pyridin-8-yl)-3-(5-(1-(trifluoromethyl)cyclopropyl)-isoxazol-3-yl)urea], for which the IC50 is below 200 nM.
With `COCCn1cc(-c2ccc(NC(=O)Nc3cc(C4(C(F)(F)F)CC4)on3)c3nccn23)c2c(N)ncnc21` [Example I-89, 1-(5-(4-amino-7-(2-methoxy-ethyl)-7H-pyrrolo[2,3-d]-pyrimidin-5-yl)imidazo[1,2-a]pyridin-8-yl)-3-(5-(1-(trifluoromethyl)cyclopropyl)-isoxazol-3-yl)urea] the figure was below 200 nM; with `Nc1ncnc2c1c(-c1ccc(NC(=O)Nc3cc(C4(C(F)(F)F)CC4)on3)c3nccn13)cn2-c1cccnc1` [Example I-91, 1-(5-(4-amino-7-(pyridin-3-yl)-7H-pyrrolo[2,3-d]pyrimidin-5-yl)imidazo[1,2-a]pyridin-8-yl)-3-(5-(1-(trifluoromethyl)-cyclopropyl)isoxazol-3-yl)urea], below 200 nM.
`Nc1ncnc2c1c(-c1ccc(NC(=O)Nc3cc(C4(C(F)(F)F)CC4)on3)c3nccn13)cn2C1CCNCC1` [Example I-94, 1-(5-(4-amino-7-(piperidin-4-yl)-7H-pyrrolo[2,3-d]pyr-imidin-5-yl)imidazo[1,2-a]-pyridin-8-yl)-3-(5-(1-(trifluoro-methyl)cyclopropyl)isoxazol-3-yl)urea]: the IC50 was below 200 nM.
Turning to `CN1CCC(n2cc(-c3ccc(NC(=O)Nc4cc(C5(C(F)(F)F)CC5)on4)c4nccn34)c3c(N)ncnc32)CC1` [Example I-95, 1-(5-(4-amino-7-(1-methyl-piperidin-4-yl)-7H-pyrrolo-[2,3-d]pyrimidin-5-yl)imid-azo[1,2-a]pyridin-8-yl)-3-(5-(1-(trifluoromethyl)cyclo-propyl)isoxazol-3-yl)urea], the IC50 was 200 to 500 nM.
With `Nc1ncnc2c1c(-c1ccc(NC(=O)Nc3cc(C4CC4)no3)c3nccn13)cn2C1CC1` [Example I-119, 1-(5-(4-amino-7-cyclopropyl-7H-pyrrolo[2,3-d]pyrimidin-5-yl)imidazo[1,2-a]pyridin-8-yl)-3-(3-cyclopropylisoxazol-5-yl)urea] the figure was 200 to 500 nM.
With `Nc1ncnc2c1c(-c1ccc(NC(=O)Nc3cc(C4CC4)on3)c3nccn13)cn2C1CC1` [Example I-120, 1-(5-(4-amino-7-cyclopropyl-7H-pyrrolo[2,3-d]pyrimidin-5-yl)imidazo[1,2-a]pyridin-8-yl)-3-(5-cyclopropylisoxazol-3-yl)urea] the figure was below 200 nM; with `CCN1CCC(Oc2ccc(NC(=O)Nc3ccc(-c4cn(C5CC5)c5ncnc(N)c45)c4c3OC(C)C4)cc2C(F)(F)F)CC1` (stereo not drawn) [Example I-121, 1-(4-(4-amino-7-cyclopropyl-7H-pyrrolo[2,3-d]pyrimidin-5-yl)-2-methyl-2,3-dihydro-benzofuran-7-yl)-3-(4-((1-ethylpiperidin-4-yl)oxy)-3-(trifluoromethyl)phenyl)urea], above 2000 nM.
For `CC1(C)Cc2c(-c3cn(C4CCC4)c4ncnc(N)c34)ccc(NC(=O)Nc3cc(C4(C(F)(F)F)CC4)on3)c2O1` [Example I-122, 1-(4-(4-amino-7-cyclobutyl-7H-pyrrolo[2,3-d]pyrimidin-5-yl)-2,2-dimethyl-2,3-dihydrobenzofuran-7-yl)-3-(5-(1-(trifluoromethyl)cyclo-propyl)isoxazol-3-yl)urea] the value was 500 to 2000 nM.
As for `CCN1CCC(Oc2ccc(NC(=O)Nc3ccc(-c4cn(C5CC5)c5ncnc(N)c45)c4c3OC(C)(C)C4)cc2C(F)(F)F)CC1` [Example I-123, 1-(4-(4-amino-7-cyclopropyl-7H-pyrrolo[2,3-d]pyrimidin-5-yl)-2,2-dimethyl-2,3-dihydrobenzofuran-7-yl)-3-(4-((1-ethylpiperidin-4-yl)oxy)-3-(trifluoromethyl)phenyl)urea], the concentration for half-maximal inhibition (IC50) was above 2000 nM.
With `CCN1CCC(Oc2ccc(NC(=O)Nc3ccc(-c4cn(C5CC5)c5ncnc(N)c45)c4cnoc34)cc2C(F)(F)F)CC1` [Example I-125, 1-(4-(4-amino-7-cyclopropyl-7H-pyrrolo[2,3-d]pyrimidin-5-yl)benzo[d]isoxazol-7-yl)-3-(4-((1-ethylpiperidin-4-yl)oxy)-3-(trifluoromethyl)phenyl)urea] the figure was 200 to 500 nM.
With `Cn1cc(-c2ccc(NC(=O)Nc3cc(C4(C(F)(F)F)CC4)on3)c3nccn23)c2c(N)ncnc21` [Example I-126, 1-(5-(4-amino-7-methyl-7H-pyrrolo[2,3-d]pyrimidin-5-yl)imidazo[1,2-a]pyridin-8-yl)-3-(5-(1-(trifluoromethyl)-cyclopropyl)isoxazol-3-yl)urea] the figure was below 200 nM; with `CN1CCN(Cc2ccc(NC(=O)Nc3ccc(-c4cn(C)c5ncnc(N)c45)n4ccnc34)cc2C(F)(F)F)CC1` [Example I-127, 1-(5-(4-amino-7-methyl-7H-pyrrolo[2,3-d]pyrimidin-5-yl)imidazo[1,2-a]pyridin-8-yl)-3-(4-((4-methylpiperazin-1-yl)methyl)-3-(trifluorometh-yl)phenyl)urea], below 200 nM.
For `CC(C)n1cc(-c2ccc(NC(=O)Nc3ccc(CN4CCN(C)CC4)c(C(F)(F)F)c3)c3nccn23)c2c(N)ncnc21` [Example I-128, 1-(5-(4-amino-7-isopropyl-7H-pyrrolo[2,3-d]pyrimidin-5-yl)imidazo[1,2-a]pyridin-8-yl)-3-(4-((4-methylpiperazin-1-yl)methyl)-3-(trifluorometh-yl)phenyl)urea] the value was below 200 nM; for `CN1CCN(Cc2ccc(NC(=O)Nc3ccc(-c4cn(C5CCC5)c5ncnc(N)c45)n4ccnc34)cc2C(F)(F)F)CC1` [Example I-129, 1-(5-(4-amino-7-cyclobutyl-7H-pyrrolo[2,3-d]pyrimidin-5-yl)imidazo[1,2-a]pyridin-8-yl)-3-(4-((4-methylpiperazin-1-yl)methyl)-3-(trifluorometh-yl)phenyl)urea], below 200 nM.
With `CN1CCN(Cc2ccc(NC(=O)Nc3ccc(-c4cn(CCO)c5ncnc(N)c45)n4ccnc34)cc2C(F)(F)F)CC1` [Example I-130, 1-(5-(4-amino-7-(2-hydroxy-ethyl)-7H-pyrrolo[2,3-d]pyr-imidin-5-yl)imidazo[1,2-a]-pyridin-8-yl)-3-(4-((4-meth-ylpiperazin-1-yl)methyl)-3-(trifluoromethyl)phenyl)urea], the IC50 was below 200 nM.
With `CN1CCN(Cc2ccc(NC(=O)Nc3ccc(-c4cn(CC(C)(C)O)c5ncnc(N)c45)n4ccnc34)cc2C(F)(F)F)CC1` [Example I-131, 1-(5-(4-amino-7-(2-hydroxy-2-methylpropyl)-7H-pyrrolo[2,3-d]pyrimidin-5-yl)imidazo[1,2-a]pyridin-8-yl)-3-(4-((4-meth-ylpiperazin-1-yl)methyl)-3-(trifluoromethyl)phenyl)urea] the figure was below 200 nM.
With `CN1CCN(Cc2ccc(NC(=O)Nc3ccc(-c4cn(C5CC(O)C5)c5ncnc(N)c45)n4ccnc34)cc2C(F)(F)F)CC1` (stereo not drawn) [Example I-132, 1-(5-(4-amino-7-(3-hydroxy-cyclobutyl)-7H-pyrrolo[2,3-d]pyrimidin-5-yl)imidazo[1,2-a]pyridin-8-yl)-3-(4-((4-meth-ylpiperazin-1-yl)methyl)-3-(trifluoromethyl)phenyl)urea] the figure was below 200 nM.
